Assay results from patent publication US10266564B2, “Cationic lipid cordiarimide hybrid compounds and a process for preparation thereof” (COUNCIL OF SCIENTIFIC & INDUSTRIAL RESEARCH, priority 2014, dated 2019).
Entries after “also recorded” stand apart in the source; their conditions may differ.

How the values were obtained:
[1] = system: PC-3 (human prostate cancer cells); test: MTT assay for cell viability, PC-3; assay type: cell-based; conditions: Homo sapiens, 48 h
Method: (§1) The human cancer cell lines e.g. HepG2 (hepatocellular carcinoma, ATCC® HB-8065™), PC-3 (human prostate cancer cells, ATCC® CRL-1435™), MCF-7 (breast adenocarcinoma, ATCC® […]), and mouse embryo fibroblasts (NIH/3T3, ATCC® CRL-1658™), used in the present study were obtained from the ATCC (American Type Culture Collection, USA and maintained in RPMI 1640 (Roswell Park Memorial Institute, Merck) with 10% FBS (Merck), supplemented with 1% antibiotic and antimycotic solution (Gibco, USA) at 37° C. in a humidified incubator with 5% CO2. All stock solutions of the compounds were prepared in cell culture grade DMSO (dimethyl sulfoxide) and stored at −20° C. Compounds were diluted in culture media prior to use in experiments. Annexin V-FITC apoptosis detection kits were purchased from Calbiochem. MTT dye was procured from Sigma-Aldrich. All the flow cytometry experiments were performed using a FACScan (Becton Dickinson, Mountain View, Calif.) flow cytometer, equipped with a single 488 nm argon laser.
(§2) Cell viability was assessed by MTT assay, which is based on the reduction of MTT by mitochondrial dehydrogenases of viable cells to form a purple formazan product. Briefly, cells (5-6×10^3/well) were plated in 96 well plates. After incubating overnight, the cells were treated with […] different concentrations (100, 50, 20, 10, 5, 2.5, 1.25 μM) in triplicates with the cationic lipidated cordiarimide and intermediates for 48 h. Subsequently, 10 μL of MTT (10 mg/mL) was added to each well and incubated for 3 h. The MTT formazan formed by viable cells was dissolved in 100 μL of DMSO and shaken for 10 min. The absorbance was measured on an ELISA reader. Each test was repeated at least three times. The concentration of the compound which gives the 50% growth inhibition value corresponding to IC50, was calculated using GraphPad prism 5 software. In the present invention we have screened 26 lipidated cordiarimides and the results are described in table 1.

[2] = system: MCF-7 (breast adenocarcinoma); test: MTT assay for cell viability, MCF-7; assay type: cell-based, human; conditions: Homo sapiens, MCF7, 48 h
Method: as §1, §2

[3] = system: HepG2 (hepatocellular carcinoma); test: MTT assay for cell viability, HepG2; assay type: cell-based, human; conditions: Homo sapiens, HepG2, 48 h
Method: as §1, §2

[4] = system: HepG2, NH/3T3, PC-3, MCF-7 cell lines; test: MTT assay, summary over the cell line panel; assay type: cell-based; conditions: across tested cell lines
Method: as §1, §2

[5] = system: mouse embryo fibroblasts (NIH/3T3); test: MTT assay for cell viability, NIH/3T3; assay type: cell-based; conditions: NIH3T3, 48 h
Method: as §1, §2

HepG2 cells [6] = test: Cell cycle analysis, PI staining by flow cytometry; assay type: cell-based, human; conditions: HepG2, 24 h, 5, 10, and 20 mM as printed
Method: For cell cycle distribution studies after treatment with different molar concentrations of 8i and 8k, HepG2 cells were fixed overnight in 70% ethanol, rehydrated in PBS with ribonuclease A (100 μg/ml) and Triton-X (1%) for 30 min at room temperature then PI (at 50 μg/ml) was added and incubated in the dark for 30 min and analyzed with a flow cytometer. Experiments were repeated two times independently.

HepG2 cells [7] = test: Apoptosis, annexin V/PI staining by flow cytometry; assay type: cell-based, human; conditions: HepG2, 24 h
Method: Quantitation of apoptotic cells by annexin V staining was carried out according to the manufacturer's instructions. Briefly, cells (5×10^5 cells/well) were seeded in 6 well plates and treated with 5 μM of 8h-8k for 24 h. After incubation, cells were washed with PBS and stained with 1.25 μL of annexin V-FITC and 10 μL of media binding reagent and incubated for 20 min. After that 10 μL of PI was added and samples were analyzed using a flow cytometer. Annexin V-FITC was analyzed using excitation and emission settings of 488 nm and 535 nm (FL-1 channel); PI, 488 nm and 610 nm (FL-2 channel). Debris and clumps were gated out using forward and orthogonal light scatter. Each experiment was repeated two times independently. Results are illustrated in FIG. 1 and the percentage of Annexin-V/PI positive cells increased gradually from 20 to 70% after 24 h of treatment (FIG. 1).

caspase-3 in HepG2 cells = test: Caspase-3 colorimetric activation assay; assay type: cell-based, human; conditions: HepG2, 5 and 10 μM, 24 h
Method: The activity of caspase-3 was determined using a caspase-3 colorimetric assay kit (Sigma Aldrich) according to the manufacturer's protocol. Briefly, HepG2 cells (1×10^6 cells/well) were treated with 5 and 10 μM of 8i and 8k for 24 h. The cells were harvested and lysed by addition of lysis buffer. Cell lysates were mixed with colorimetric substrate (Ac-DEVD-pNA) and incubated at 37° C. in the dark for 4 h. The absorbance was measured at 405 nm in an ELISA reader. Caspase-3 activity was expressed as the change of the activity compared to the control (FIG. 3).

human ligase I = human ligase I (Homo sapiens, UniProt P18858); test: Ligation assay, DNA ligase I; assay type: biochemical; conditions: screening, FIG. 4 and FIG. 7
Sequence of human ligase I (P18858 whole entry): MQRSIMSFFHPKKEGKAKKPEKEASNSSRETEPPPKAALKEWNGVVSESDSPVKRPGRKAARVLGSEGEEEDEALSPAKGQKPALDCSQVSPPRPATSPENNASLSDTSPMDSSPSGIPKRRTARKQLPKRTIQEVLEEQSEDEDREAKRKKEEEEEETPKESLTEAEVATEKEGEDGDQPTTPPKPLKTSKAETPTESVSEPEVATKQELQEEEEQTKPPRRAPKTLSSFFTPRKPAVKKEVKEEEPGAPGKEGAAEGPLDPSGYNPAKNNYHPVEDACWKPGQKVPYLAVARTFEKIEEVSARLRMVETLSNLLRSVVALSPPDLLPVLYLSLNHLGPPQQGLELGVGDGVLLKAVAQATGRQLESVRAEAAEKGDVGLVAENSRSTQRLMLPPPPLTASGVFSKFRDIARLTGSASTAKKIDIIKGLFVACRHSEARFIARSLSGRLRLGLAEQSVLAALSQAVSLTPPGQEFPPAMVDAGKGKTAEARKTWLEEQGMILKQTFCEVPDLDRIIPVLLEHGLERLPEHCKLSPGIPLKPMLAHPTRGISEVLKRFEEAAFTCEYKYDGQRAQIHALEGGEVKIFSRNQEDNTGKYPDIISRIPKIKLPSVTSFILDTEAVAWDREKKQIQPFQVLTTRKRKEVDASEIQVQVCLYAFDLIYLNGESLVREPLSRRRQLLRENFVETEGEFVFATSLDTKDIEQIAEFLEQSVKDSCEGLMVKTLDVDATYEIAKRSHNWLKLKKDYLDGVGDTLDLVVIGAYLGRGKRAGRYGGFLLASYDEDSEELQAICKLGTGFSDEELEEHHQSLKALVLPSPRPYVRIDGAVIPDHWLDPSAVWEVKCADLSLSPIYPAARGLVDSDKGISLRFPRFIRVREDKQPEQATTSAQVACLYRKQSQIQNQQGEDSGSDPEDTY
Excerpt: The ligation assay was done strictly following the assay protocol described in Xi Chen et. al, Cancer Res 2008; 68(9):3169-3177. The DNA molecules 52 mer (5′-3′), 28-mer (5′-3′) and 34-mer (5′-3′) were used to construct a double stranded nicked substrate for the ligase enzyme (FIG. 4). The 34-mer oligo was labelled with 32P-AMP to form a substrate for ligase and to form a ligase-AMP intermediate. During ligation, the ligase would transfer the AMP to the nick forming a phosphodiester bond and seal the nick. The ligated DNA molecule would be larger in size and run higher up on a 7% Urea-containing denaturing acrylamide gel. If an inhibitor is added to the reaction mixture prior to the addition of ligase, this would lead to an inhibition of ligation and a corresponding loss of labelled ligated product in the gel. We would then be able to calculate the percentage of inhibition of ligation by estimating the amount of ligated product in the lane with no inhibitor and comparing it with the lanes containing different inhibitor molecules or with the same inhibitor molecule at different concentrations.

HuCCA-1 = conditions: according to Kittakoop et al.; cited from earlier work
A549 = conditions: according to Kittakoop et al.; cited from earlier work
MOLT-3 = conditions: according to Kittakoop et al.; cited from earlier work
HepG2 = conditions: according to Kittakoop et al.; cited from earlier work

SMILES	IC50 [1] [µM]	IC50 [2] [µM]	IC50 [3] [µM]	antiproliferative / anticancer activity (in words) [4]	IC50 [5] [µM]	effect on cell cycle progression (HepG2 cells [6])	apoptosis induction (in words) (HepG2 cells [7])	caspase-3 activation (caspase-3 in HepG2 cells)	DNA ligase I / ligation inhibition (in words) (human ligase I)	cytotoxicity toward HuCCA-1 (HuCCA-1)	cytotoxicity toward A549 (A549)	IC50 (MOLT-3) [µM]	cytotoxicity toward HepG2 (HepG2)
CCCCCCCC[N+](C)(CCCCCCCC)CC(=O)NC1CCC(=O)N(CC(=O)c2ccccc2)C1=O (stereo not shown) [Compound 8g, {[2,6-Dioxo-1-(2-oxo-2-phenyl-ethyl)-piperidin-3-ylcarbamoyl]-methyl}-Methyl-dioctyl-ammonium iodide]	> 20	6.37	3.43	very good anticancer activity without selectivity	5.48	–	–	–	–	–	–	–	–
CCCCCCCCCC[N+](C)(CCCCCCCCCC)CC(=O)NC1CCC(=O)N(CC(=O)c2ccccc2)C1=O (stereo not shown) [Compound 8i, Bis-decyl-{[2,6-dioxo-1-(2-oxo-2-phenyl-ethyl)-piperidin-3-ylcarbamoyl]-methyl}-methyl-ammonium iodide]	4.23	5.21	3.07	very good anticancer activity without selectivity	2.13	did not altered cell cycle progression; also recorded: did not show any impact on cell cycle progression	induced significant amount of apoptosis	activated the caspase-3 in HepG2 cells dose dependently; also recorded: activated the casepase-3 in HepG2 cells dose dependently	–	–	–	–	–
CCCCCCCCCCCCC[N+](C)(CCCCCCCCCCCCC)CC(=O)NC1CCC(=O)N(CC(=O)c2ccccc2)C1=O (stereo not shown) [Compound 8l, {[2,6-Dioxo-1-(2-oxo-2-phenyl-ethyl)-piperidin-3-ylcarbamoyl]-methyl}-Methyl-ditridecyl-ammonium iodide]	> 20	> 20	> 20	–	> 20	–	–	–	did not elicit any DNA ligase I inhibition	–	–	–	–
CCCCCCCCCCCCCC[N+](C)(CCCCCCCCCCCCCC)CC(=O)NC1CCC(=O)N(CC(=O)c2ccccc2)C1=O (stereo not shown) [Compound 8m, {[2,6-Dioxo-1-(2-oxo-2-phenyl-ethyl)-piperidin-3-ylcarbamoyl]-methyl}Methyl-ditetradecyl-ammonium iodide]	> 20	> 20	> 20	–	> 20	–	–	–	did not elicit any DNA ligase I inhibition	–	–	–	–
CC(=O)NC1CCC(=O)N(CC(=O)c2ccccc2)C1=O (stereo not shown) [Cordiarimide A]	–	–	–	–	–	–	–	–	did not show any ligation inhibition	inactive	inactive	145	inactive
